Assay results taken from patent publication US20240174681A1, “SALT AND CRYSTALLINE FORMS OF FGFR4 INHIBITOR AND USES THEREOF” (BETTA PHARMACEUTICALS CO., LTD, priority 2020, published 2024).
pIC50: −log10 of the molar value. “Also recorded” adds a separate entry of the source. Where two headings read alike, the source gives them in different places.

Experiments:
[1] = Stability determination of crystal forms (HPLC); assay type: physicochemical; details: for stability (in words): HPLC detection results
Method: Samples and experimental preparation: The amorphous form of the compound represented by Formula I and the crystal form A, maleate crystal form 1, maleate crystal form 2, phosphate crystal form 1 and adipate crystal form 1 of the compound represented by Formula I in appropriate amounts were tested for stability. Samples were taken at different time points separately for HPLC. The packages were polyester/aluminum/polyamide/polyethylene pharmaceutical composite films and bags.

[2] = Hygroscopicity determination by dynamic vapor sorption (DVS); assay type: physicochemical; details: for Weight Gain for Vapor Absorption: DVS, 0% RH to 80% RH; for hygroscopicity (in words): under the test conditions
Method: The hygroscopicity of samples (which are multiple crystal forms shown in Table 14) was determined by a dynamic vapor sorption (DVS) meter. The samples were detected for changes of weight gains due to vapor absorption within the range of 0% RH (relative humidity) to 80% RH.

[3] = test system: human liver cancer cells Hep3B; assay: Cell proliferation assay (CellTiter-Glo); assay type: cell-based; details: 96 hrs incubation, CTG, read-out: IC50 of the Compound on Hep3B Cells
Method: The effect of the compound of the present disclosure on the proliferation of human liver cancer cells Hep3B cells was evaluated by an in vitro cell assay. CELL TITER-GLO (CTG) luminescence was used as a detection method in the assay, which can detect the number of living cells by quantitatively determining ATP. Since ATP participates in a variety of enzymatic reactions in organisms, the ATP is an indicator of the metabolism of living cells and its content directly reflects the number of cells and the cell state of cells. In the assay, CellTiter-Glo™ reagent was added to a cell culture medium to measure a luminescence value, the luminescence value is directly proportional to the amount of ATP, and ATP is positively correlated to the number of living cells, so cell viability can be inspected by detecting the ATP content.
A bottle of Hep3B cells in a logarithmic growth phase was taken, the cells were counted after digestion and resuspension and then inoculated into a 96-well plate after the cell density was adjusted, each well inoculated with 180 μL (1500 cells/well), and the plate was incubated for 24 hrs in a 37° C., 5% CO2 incubator. • (2) Administration to cells […]
An inhibition rate was calculated according to the luminescence value. […]

[4] = test system: human liver cancer cells Hep3B xenograft; assay: Hep3B xenograft tumor model; assay type: in vivo
Method: BALB/c nu/nu female mice were inoculated with 5×10^6 human liver cancer cells Hep3B subcutaneously in the right anterior scapula, where a volume ratio of a cell suspension to matrigel was 1:1 (0.2/mL/mouse). When an average tumor volume was 158 mm^3, the mice were randomly grouped according to a tumor size. The treatment group was administered with a solution of a to-be-tested compound prepared with an appropriate solvent, and the solvent control group was administered with a blank solvent. During treatment, the tumor volume was measured twice a week, and the tumor weight was determined after a last dose to determine the activity of the compound. A tumor growth inhibition (TGI) rate (%) was calculated by comparing the tumor volumes and weights of the treatment group and the solvent control group. Body weight measurement, as the routine determination of toxicity, has the same frequency as tumor volume measurement.

[5] = Pharmacokinetic test of crystal forms in SD rats, oral; assay type: in vivo; details: 50 mg/kg, suspension in 0.5% CMC-Na
Method: Drug preparation: A maleate crystal form 1, a phosphate crystal form 1 and an adipate crystal form 1 were weighed separately, and each crystal form was prepared in a 0.5% CMC-Na solution into a to-be-tested suspension, where the final concentration of each compound was 5 mg/mL.
Test animals: SD rats were randomly divided into three groups, each group including three male rats, and the three groups were called a maleate group, a phosphate group and an adipate group, separately.
Administration and sample collection: The SD rats in each group were subjected to oral administration at a dosage of 50 mg/kg. Blood collection time: Blood samples were collected in EDTA-K pre-anticoagulation tubes after 0 h (before administration), 0.25 h, 0.5 h, 1 h, 2 hrs, 4 hrs, 7 hrs and 24 hrs. The plasma in each sample was isolated by being centrifuged at 4000 rpm for 10 min at 4° C. Plasma samples were collected and stored at −80° C. for analytical use. The concentration of a to-be-tested compound in plasma samples was analyzed by AB4000 API LC/MS in combination with HPLC, and the pharmacokinetic parameter of the to-be-tested compound was obtained by analyzing the plasma concentration-time data of each animal.

[6] = 40° C./75% RH, packaged, day 5, listed as Crystal form A of the compound represented by Formula I
[7] = 40° C./75% RH, packaged, day 20
[8] = day 0, listed as Crystal form A of the compound represented by Formula I
[9] = 40° C./75% RH, packaged, day 12

In the case of `C=CC(=O)N[C@H]1CCOC[C@H]1Nc1ncc2c(n1)-c1cc(C)cnc1N(c1c(Cl)c(OC)cc(OC)c1Cl)C2` [Amorphous form of the compound represented by Formula I], the “API Content” value ([1]; 25° C./75% RH, open, day 10) was 97.21%, the “Changed Maximum Single Impurity” value ([1]; 25° C./75% RH, open, day 10) was 1.26% and the “API Content” value ([1]; 40° C., open, day 10) was 97.45%. For the same compound, the “Changed Maximum Single Impurity” value ([1]; 40° C., open, day 10) was 1.15%, the “stability (in words)” value [1] was “poor stability” and the “API Content” value ([1]; day 0) was 98.30%. The “Changed Maximum Single Impurity” value ([1]; day 0) was 0.41%, the “Weight Gain for Vapor Absorption” value [2] was 6.53% and the “hygroscopicity (in words)” value [2] was “hygroscopic”.

For `C=CC(=O)N[C@H]1CCOC[C@H]1Nc1ncc2c(n1)-c1cc(C)cnc1N(c1c(Cl)c(OC)cc(OC)c1Cl)C2` [Compound represented by Formula I, N-((3S,4S)-3-((6-(2,6-dichloro-3,5-dimethoxyphenyl)-9-methyl-5,6-dihydropyrimido[5,4-c][1,8]naphthyridin-2-yl)amino)tetrahydro-2H-pyran-4-yl)acrylamide], the pIC50 [3] was 8.29, the “inhibition rate on the tumor volume growth of Hep3B” value (“inhibition rate … of Hep3B” below) ([4]; 50 mg/kg BID×14) was 73.02% and the “inhibition rate on the tumor weight growth of HepB” value (“inhibition rate … of HepB” below) ([4]; 50 mg/kg BID×14) was 84.76%. For the same compound, the “inhibition rate … of Hep3B” value ([4]; 100 mg/kg BID×14) was 86.26%, the “inhibition rate … of HepB” value ([4]; 100 mg/kg BID×14) was 92.27% and the “inhibition rate … of Hep3B” value ([4]; 200 mg/kg BID×14) was 90.26%. For the same compound, the “inhibition rate … of HepB” value ([4]; 200 mg/kg BID×14) was 98.15% and the “body weight loss (routine determination of toxicity)” value ([4]; during the entire assay, treatment doses 50-200 mg/kg BID×14) was “none of the animals administered with the compound represented by Formula I showed an obvious weight loss”.

For `C=CC(=O)N[C@H]1CCOC[C@H]1Nc1ncc2c(n1)-c1cc(C)cnc1N(c1c(Cl)c(OC)cc(OC)c1Cl)C2` [Crystal form A], the “API Content” value ([1]; 25° C./92.5% RH, open, day 20) was 99.32%, the “Changed Maximum Single Impurity” value ([1]; 25° C./92.5% RH, open, day 20) was 0.17% and the “API Content” value [1, 6] was 99.25%. For the same compound, the “Changed Maximum Single Impurity” value [1, 6] was 0.19%, the “API Content” value [1, 7] was 99.47% and the “Changed Maximum Single Impurity” value [1, 7] was 0.17%. The “API Content” value ([1]; 60° C., open, day 12) was 99.14%, the “Changed Maximum Single Impurity” value ([1]; 60° C., open, day 12) was 0.24% and the “stability (in words)” value [1] was “relatively good stability”. For the same compound, the “API Content” value [1, 8] was 99.16%, the “Changed Maximum Single Impurity” value [1, 8] was 0.19% and the “Weight Gain for Vapor Absorption” value [2] was 0.03%. The “hygroscopicity (in words)” value [2] was “non-hygroscopic; also recorded: low hygroscopicity”.

For `C=CC(=O)NC1CCOCC1Nc1ncc2c(n1)-c1cc(C)cnc1N(c1c(Cl)c(OC)cc(OC)c1Cl)C2.O=C(O)C(O)C(O)C(=O)O` [L-tartrate crystal form 1], the “Weight Gain for Vapor Absorption” value [2] was 0.07% and the “hygroscopicity (in words)” value [2] was “non-hygroscopic”.

With `C=CC(=O)NC1CCOCC1Nc1ncc2c(n1)-c1cc(C)cnc1N(c1c(Cl)c(OC)cc(OC)c1Cl)C2.O=C(O)C=CC(=O)O` (centres unmarked) [Maleate crystal form 1] the “API Content” value ([1]; 40° C./75% RH, packaged, day 5) was 99.48%, the “Changed Maximum Single Impurity” value ([1]; 40° C./75% RH, packaged, day 5) was 0.26% and the “API Content” value [1, 9] was 99.34%. The “Changed Maximum Single Impurity” value [1, 9] was 0.28%, the “stability (in words)” value [1] was “relatively good stability” and the “API Content” value ([1]; day 0) was 99.62%. For the same compound, the “Changed Maximum Single Impurity” value ([1]; day 0) was 0.2%, the “hygroscopicity (in words)” value [2] was “low hygroscopicity” and the AUClast [5] was 8355 ng·h/mL. It also gave a Cmax [5] of 2713 ng/mL.

In the case of `C=CC(=O)NC1CCOCC1Nc1ncc2c(n1)-c1cc(C)cnc1N(c1c(Cl)c(OC)cc(OC)c1Cl)C2.O=C(O)C=CC(=O)O` (centres unmarked) [Maleate crystal form 2], the “API Content” value ([1]; 25° C./75% RH, open, day 10) was 98.61%, the “Changed Maximum Single Impurity” value ([1]; 25° C./75% RH, open, day 10) was 1.1% and the “API Content” value ([1]; 40° C., open, day 10) was 99.32%. For the same compound, the “Changed Maximum Single Impurity” value ([1]; 40° C., open, day 10) was 0.48%, the “stability (in words)” value [1] was “poor stability” and the “API Content” value ([1]; day 0) was 99.63%. For the same compound, the “Changed Maximum Single Impurity” value ([1]; day 0) was 0.29%, the “Weight Gain for Vapor Absorption” value [2] was 6.64% and the “hygroscopicity (in words)” value [2] was “hygroscopic”.

In the case of `C=CC(=O)N[C@H]1CCOC[C@H]1Nc1ncc2c(n1)-c1cc(C)cnc1N(c1c(Cl)c(OC)cc(OC)c1Cl)C2` [Phosphate crystal form 1], the “API Content” value ([1]; 40° C./75% RH, packaged, day 5) was 99.39%, the “Changed Maximum Single Impurity” value ([1]; 40° C./75% RH, packaged, day 5) was 0.15% and the “API Content” value [1, 9] was 99.56%. The “Changed Maximum Single Impurity” value [1, 9] was 0.11%, the “stability (in words)” value [1] was “relatively good stability” and the “API Content” value ([1]; day 0) was 99.32%. For the same compound, the “Changed Maximum Single Impurity” value ([1]; day 0) was 0.15%, the “Weight Gain for Vapor Absorption” value [2] was 0.19% and the “hygroscopicity (in words)” value [2] was “non-hygroscopic; also recorded: low hygroscopicity”. The AUC(0-t) ([5]; male, rat, plasma) was 6890 ng·h/mL and the Cmax ([5]; male, rat, plasma, read-out: Cmax) was 1140 ng/mL.
